Assay results reported in patent US11999746B2, “Compounds” (GlaxoSmithKline Intellectual Property Development Limited, priority 2014, dated 2024).
Where a name gives a salt, the structure may show the parent alone.

What was measured:
[1] = target: T1, recombinant human Lp-PLA2 (Homo sapiens, UniProt Q13093); assay: (1a) PED6 assay, recombinant human Lp-PLA2 (rhLp-PLA2); assay type: biochemical; conditions: Examples 1-167 and 413-430 were tested here, one experiment or average of multiple experiments, read-out: rhLp-PLA2 (pIC50) (converted)
T1 sequence (Q13093 22-441): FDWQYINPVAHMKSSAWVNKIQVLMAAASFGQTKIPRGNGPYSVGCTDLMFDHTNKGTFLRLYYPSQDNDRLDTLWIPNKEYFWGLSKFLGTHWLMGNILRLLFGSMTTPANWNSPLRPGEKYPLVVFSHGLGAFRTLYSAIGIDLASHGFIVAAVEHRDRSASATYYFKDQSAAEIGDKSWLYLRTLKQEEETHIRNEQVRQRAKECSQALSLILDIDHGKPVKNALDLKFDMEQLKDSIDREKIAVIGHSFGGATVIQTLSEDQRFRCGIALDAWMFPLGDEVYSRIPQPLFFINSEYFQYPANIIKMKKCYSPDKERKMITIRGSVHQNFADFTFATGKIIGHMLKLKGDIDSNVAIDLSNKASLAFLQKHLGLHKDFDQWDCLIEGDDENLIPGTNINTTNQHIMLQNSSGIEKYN
Source text: (1) Recombinant Human Lp-PLA2 Assays (rhLp-PLA2)
N-((6-(2,4-Dinitrophenyl)amino)-hexanoyl)-2-(4,4-difluoro-5,7-dimethyl-4-bora-3a,4a-diaza-s-indacene-3-pentanoyl)-1-hexadecanoyl-sn-glycero-3-phosphoethanolamine, triethylammonium salt (PED6) is a commercially available fluorescently-labeled phospholipid, which is commercially available from Invitrogene and Molecular Probes. There is a quenching […] and a Bodipy fluorescein (FL) group in the sn2 position. Upon cleavage with Lp-PLA2, the Bodipy FL group is liberated and then may result in an increase in fluorescence. Inhibitors of Lp-PLA2 therefore prevent this cleavage and no fluorescent increase is observed.
The PED6 assay was run as an unquenched 10 μL assay. The source plate containing the compounds to be tested was prepared by making 1:3 (by volume) serial dilution of the compounds within DMSO on 384-well microplate. Then, 0.01 μL of the compounds on compound source plate were transferred into 384 well Greiner 784076 (black) plates using ECHO liquid dispenser. 5 μL of recombinant human Lp-PLA2 enzyme (4 nM) rhLp-PLA2 in assay buffer of 50 mM HEPES, pH 7.4, 150 mM NaCl, 1 mM CHAPS) was added to each well of the plate. Plates were centrifuged for 10 sec at 500 rpm. After 30 minutes preincubation, 5 μL of substrate (4 μM PED6 [from 5 mM DMSO stock] in assay buffer of 50 mM HEPES, pH 7.4, 150 mM NaCl, 1 mM CHAPS) was added to 384 well Greiner 784076 (black) plates. Plates were centrifuged for 10 sec at 500 rpm. The plate was covered to protect it from light and incubated for 20 min at room temperature. The plates were read for fluorescence intensity at ex: 480/em: 540 using ViewLux microplate imager for Envision spectrofluroimeters. pIC50 data, curve and QC analysis was conducted by using XL fit module in Excel.

Lp-PLA2 in human plasma = target: T2, Lp-PLA2 in human plasma (Homo sapiens, UniProt Q13093); assay: (3a) Lp-PLA2 human plasma Thio-PAF assay; assay type: biochemical; conditions: (3a) Thio-PAF assay, pooled human plasma; Examples 1-265 and 413-430 were tested here; read-out: pIC50 in the Lp-PLA2 human plasma assay (converted)
T2 construct: from tissue; host or cells: pooled human plasma
T2 sequence (Q13093 22-441): T1 sequence (Q13093 22-441)
Method in brief: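 Pooled human plasma preincubated 30 min with serially diluted compound, then given 2-thio-PAF substrate with CPM and NEM in 50 mM HEPES pH 7.4, 150 mM NaCl, 1 mM CHAPS. Reaction quenched with TFA after 2 min; CPM thiol-adduct fluorescence read at ex 380/em 485 after 40 min; pIC50 reported.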

Structure (SMILES): O=c1nc(OCc2ccc(F)cc2)cc2n1CC1CCCCN21 (stereo not shown) [Example E1, 3-((4-Fluorobenzyl)oxy)-6,7,8,9,9a,10-hexahydro-1H-pyrido[1,2′:3,4]imidazo[1,2-c] pyrimidin-1-one trifluoroacetate salt]
- IC50 [1]: ≤ 100 nM
- IC50 (Lp-PLA2 in human plasma): ≤ 10000 nM

Structure (SMILES): O=c1nc(OCc2cc(F)c(F)c(F)c2)cc2n1CC1CCCCN21 (stereo not shown) [Example E2, 3-((3,4,5-Trifluorobenzyl)oxy)-6,7,8,9,9a,10-hexahydro-1H-pyrido[1′,2′:3,4]imidazo[1,2-c] pyrimidin-1-one]
- IC50 [1]: ≤ 100 nM
- IC50 (Lp-PLA2 in human plasma): ≤ 100 nM

Structure (SMILES): O=c1nc(OCc2cc(F)cc(F)c2)cc2n1CC1CCCCN21 (stereo not shown) [Example E3, 3-((3,5-Difluorobenzyl)oxy)-6,7,8,9,9a,10-hexahydro-1H-pyrido[1′,2′:3,4]imidazo-[1,2-c] pyrimidin-1-one]
- IC50 [1]: ≤ 100 nM
- IC50 (Lp-PLA2 in human plasma): ≤ 10000 nM

Structure (SMILES): O=c1nc(OCc2ccc(F)c(F)c2)cc2n1CC1CCCCN21 (stereo not shown) [Example E5, 3-((3,4-Difluorobenzyl)oxy)-6,7,8,9,9a,10-hexahydro-1H-pyrido[1′,2′:3,4]imidazo[1,2-c] pyrimidin-1-one]
- IC50 [1]: ≤ 100 nM
- IC50 (Lp-PLA2 in human plasma): ≤ 100 nM

Structure (SMILES): N#Cc1cccc(COc2cc3n(c(=O)n2)CC2CCCCN32)c1 (stereo not shown) [Example E6, 3-(((1-Oxo-6,7,8,9,9a,10-hexahydro-1H-pyrido[1′,2′:3,4]imidazo[1,2-c]pyrimidin-3-yl)oxy)methyl)benzonitrile]
- IC50 [1]: ≤ 100 nM
- IC50 (Lp-PLA2 in human plasma): ≤ 10000 nM

Structure (SMILES): O=c1nc(OCc2ccc(F)cc2F)cc2n1CC1CCCCN21 (stereo not shown) [Example E8, 3-((2,4-Difluorobenzyl)oxy)-6,7,8,9,9a,10-hexahydro-1H-pyrido[1′,2′:3,4]imidazo[1,2-c] pyrimidin-1-one]
- IC50 [1]: ≤ 100 nM
- IC50 (Lp-PLA2 in human plasma): ≤ 10000 nM

Structure (SMILES): N#Cc1cc(COc2cc3n(c(=O)n2)CC2CCCCN32)ccc1Oc1cncc(C(F)(F)F)c1 (stereo not shown) [Example E10, 5-(((1-Oxo-6,7,8,9,9a,10-hexahydro-1H-pyrido[1′,2′:3,4]imidazo[1,2-c]pyrimidin-3-yl)oxy)methyl)-2-((5-(trifluoromethyl)pyridin-3-yl)oxy)benzonitrile]
- IC50 [1]: ≤ 1 nM
- IC50 (Lp-PLA2 in human plasma): ≤ 100 nM

Structure (SMILES): N#Cc1cc(Oc2ccc(COc3cc4n(c(=O)n3)CC3CCCCN43)cc2F)ccc1Cl (stereo not shown) [Example E11, 2-Chloro-5-(2-fluoro-4-(((1-oxo-6,7,8,9,9a,10-hexahydro-1H-pyrido[1′,2′:3,4]imidazo[1,2-c]pyrimidin-3-yl)oxy)methyl)phenoxy)benzonitrile]
- IC50 [1]: ≤ 1 nM
- IC50 (Lp-PLA2 in human plasma): ≤ 100 nM

Structure (SMILES): N#Cc1cc(COc2cc3n(c(=O)n2)CC2CCCCN32)ccc1Oc1cccc(C(F)(F)F)c1 (stereo not shown) [Example E12, 5-(((1-Oxo-6,7,8,9,9a,10-hexahydro-1H-pyrido[1′,2′:3,4]imidazo[1,2-c]pyrimidin-3-yl)oxy)methyl)-2-(3-(trifluoromethyl)phenoxy)benzonitrile]
- IC50 [1]: ≤ 1 nM
- IC50 (Lp-PLA2 in human plasma): ≤ 100 nM

Structure (SMILES): Cc1cc(COc2cc3n(c(=O)n2)CC2CCCCN32)cc(F)c1F (stereo not shown) [Example E14, 3-((3,4-Difluoro-5-methylbenzyl)oxy)-6,7,8,9,9a,10-hexahydro-1H pyrido[1′,2′:3,4]imidazo-[1,2-c]pyrimidin-1-one]
- IC50 [1]: ≤ 100 nM
- IC50 (Lp-PLA2 in human plasma): ≤ 10000 nM

Structure (SMILES): N#Cc1cc(F)cc(COc2cc3n(c(=O)n2)CC2CCCCN32)c1 (stereo not shown) [Example E15, 3-Fluoro-5-(((1-oxo-6,7,8,9,9a,10-hexahydro-1H-pyrido[1′,2′:3,4]imidazo[1,2-c]pyrimidin-3-yl)oxy)methyl)benzonitrile]
- IC50 [1]: ≤ 100 nM
- IC50 (Lp-PLA2 in human plasma): ≤ 10000 nM

Structure (SMILES): O=c1nc(OCc2cc(F)c(F)c(Cl)c2)cc2n1CC1CCCCN21 (stereo not shown) [Example E16, 3-((3-Chloro-4,5-difluorobenzyl)oxy)-6,7,8,9,9a,10-hexahydro-1H-pyrido[1′,2′:3,4] imidazo[1,2-c]pyrimidin-1-one]
- IC50 [1]: ≤ 100 nM
- IC50 (Lp-PLA2 in human plasma): ≤ 10000 nM

Structure (SMILES): O=c1nc(OCc2ccc(Oc3ccnc(C(F)(F)F)c3)c(F)c2)cc2n1CC1CCCCN21 (stereo not shown) [Example E17, 3-((3-Fluoro-4-((2-(trifluoromethyl)pyridin-4-yl)oxy)benzyl)oxy)-6,7,8,9,9a,10-hexahydro-1H-pyrido[1′,2′:3,4]imidazo[1,2-c]pyrimidin-1-one]
- IC50 [1]: ≤ 1 nM
- IC50 (Lp-PLA2 in human plasma): ≤ 100 nM

Structure (SMILES): O=c1nc(OCc2ccc(Oc3ccc(F)c(F)c3)c(F)c2)cc2n1CC1CCCCN21 (stereo not shown) [Example E18, 3-((4-(3,4-Difluorophenoxy)-3-fluorobenzyl)oxy)-6,7,8,9,9a,10-hexahydro-1H-pyrido[1′,2′:3,4]imidazo[1,2-c]pyrimidin-1-one]
- IC50 [1]: ≤ 100 nM
- IC50 (Lp-PLA2 in human plasma): ≤ 10000 nM

Structure (SMILES): N#Cc1cc(COc2cc3n(c(=O)n2)CC2CCCCN32)ccc1Oc1ccc(F)c(F)c1 (stereo not shown) [Example E19, 2-(3,4-Difluorophenoxy)-5-(((1-oxo-6,7,8,9,9a,10-hexahydro-1H-pyrido[1′,2′:3,4]imidazo-[1,2-c]pyrimidin-3-yl)oxy)methyl)benzonitrile]
- IC50 [1]: ≤ 1 nM
- IC50 (Lp-PLA2 in human plasma): ≤ 100 nM

Structure (SMILES): N#Cc1ccc(Oc2ccc(COc3cc4n(c(=O)n3)CC3CCCCN43)cc2C#N)cc1Cl (stereo not shown) [Example E20, 2-Chloro-4-(2-cyano-4-(((1-oxo-6,7,8,9,9a,10-hexahydro-1H-pyrido[1′,2′:3,4]imidazo[1,2-c]pyrimidin-3-yl)oxy)methyl)phenoxy)benzonitrile]
- IC50 [1]: ≤ 1 nM
- IC50 (Lp-PLA2 in human plasma): ≤ 100 nM

Structure (SMILES): O=c1nc(OCc2cc(F)c(Oc3cncc(C(F)(F)F)c3)c(F)c2)cc2n1CC1CCCCN21 (stereo not shown) [Example E21, 3-((3,5-Difluoro-4-((5-(trifluoromethyl)pyridin-3-yl)oxy)benzyl)oxy)-6,7,8,9,9a,10-hexahydro-1H-pyrido[1′,2′:3,4]imidazo[1,2-c]pyrimidin-1-one]
- IC50 [1]: ≤ 1 nM
- IC50 (Lp-PLA2 in human plasma): ≤ 100 nM

Structure (SMILES): O=c1nc(OCc2ccc(Oc3ccc(C(F)(F)F)nc3)c(F)c2)cc2n1CC1CCCCN21 (stereo not shown) [Example E22, 3-((3-Fluoro-4-((6-(trifluoromethyl)pyridin-3-yl)oxy)benzyl)oxy)-6,7,8,9,9a,10-hexahydro-1H-pyrido[1′,2′:3,4]imidazo[1,2-c]pyrimidin-1-one]
- IC50 [1]: ≤ 1 nM
- IC50 (Lp-PLA2 in human plasma): ≤ 10000 nM

Structure (SMILES): N#Cc1cc(COc2cc3n(c(=O)n2)CC2CCCCN32)ccc1Oc1ccc(C(F)(F)F)cc1 (stereo not shown) [Example E23, 5-(((1-Oxo-6,7,8,9,9a,10-hexahydro-1H-pyrido[1′,2′:3,4]imidazo[1,2-c]pyrimidin-3-yl)oxy)methyl)-2-(4-(trifluoromethyl)phenoxy)benzonitrile]
- IC50 [1]: ≤ 1 nM
- IC50 (Lp-PLA2 in human plasma): ≤ 100 nM

Structure (SMILES): N#Cc1cc(COc2cc3n(c(=O)n2)CC2CCCCN32)ccc1Oc1ccc(Cl)c(F)c1 (stereo not shown) [Example E24, 2-(4-Chloro-3-fluorophenoxy)-5-(((1-oxo-6,7,8,9,9a,10-hexahydro-1H pyrido-[1′,2′:3,4]imidazo[1,2-c]pyrimidin-3-yl)oxy)methyl)benzonitrile]
- IC50 [1]: ≤ 1 nM
- IC50 (Lp-PLA2 in human plasma): ≤ 100 nM

Structure (SMILES): O=c1nc(OCc2cc(F)c(Oc3ccc(C(F)(F)F)nc3)c(F)c2)cc2n1CC1CCCCN21 (stereo not shown) [Example E25, 3-((3,5-Difluoro-4-((6-(trifluoromethyl)pyridin-3-yl)oxy)benzyl)oxy)-6,7,8,9,9a,10-hexahydro-1H-pyrido[1′,2′:3,4]imidazo[1,2-c]pyrimidin-1-one]
- IC50 [1]: ≤ 1 nM
- IC50 (Lp-PLA2 in human plasma): ≤ 100 nM

Structure (SMILES): O=c1nc(OCc2cc(F)c(Oc3ccnc(Cl)c3)c(F)c2)cc2n1CC1CCCCN21 (stereo not shown) [Example E26, 3-((4-((2-Chloropyridin-4-yl)oxy)-3,5-difluorobenzyl)oxy)-6,7,8,9,9a,10-hexahydro-1H-pyrido[1,2′:3,4]imidazo[1,2-c]pyrimidin-1-one]
- IC50 [1]: ≤ 1 nM
- IC50 (Lp-PLA2 in human plasma): ≤ 100 nM

Structure (SMILES): O=c1nc(OCc2ccc(F)c(Cl)c2)cc2n1CC1CCCCN21 (stereo not shown) [Example E27, 3-((3-Chloro-4-fluorobenzyl)oxy)-6,7,8,9,9a,10-hexahydro-1H-pyrido[1′,2′:3,4]imidazo[1,2 c]pyrimidin-1-one]
- IC50 [1]: ≤ 100 nM
- IC50 (Lp-PLA2 in human plasma): ≤ 10000 nM
